Measurements: patent US12391737B2, “Soluble NPY2 receptor agonists” (Boehringer Ingelheim International GmbH, priority 2020, dated 2025)

Assays:
[1] = target: T1, Human Neuropeptide Y2 Receptor (Homo sapiens, UniProt P49146); experiment: Radioligand binding competition assay (RLB); conditions: Table 3, 125I-PYY(1-36) competition; read-out: Ki
T1 construct: purchased CHEMICON HTS066M
T1 sequence (P49146 1-381): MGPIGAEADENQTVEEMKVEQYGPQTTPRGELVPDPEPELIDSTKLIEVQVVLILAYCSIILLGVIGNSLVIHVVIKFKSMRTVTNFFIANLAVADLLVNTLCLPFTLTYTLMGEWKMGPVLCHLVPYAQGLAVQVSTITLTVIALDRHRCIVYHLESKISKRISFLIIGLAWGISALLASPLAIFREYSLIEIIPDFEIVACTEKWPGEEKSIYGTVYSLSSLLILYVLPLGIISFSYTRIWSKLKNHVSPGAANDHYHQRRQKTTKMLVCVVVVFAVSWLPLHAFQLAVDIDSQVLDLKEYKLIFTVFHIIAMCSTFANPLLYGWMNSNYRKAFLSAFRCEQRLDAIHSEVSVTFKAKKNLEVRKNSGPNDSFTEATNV
Outline: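 IC50 values come from sigmoidal dose-response fits of scintillation counts after peptides competed for radioligand binding at receptor membranes (0.5 μg protein/well). Incubation ran 2 h at room temperature in HEPES buffer, pH 7.4, with Mg2+, Ca2+ and 0.2% ovalbumin.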

Solubility determination = conditions: for Sol6: pH 6; for Sol7: pH 7
Outline: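 Solubility is derived from the ratio of reversed-phase peak areas, filtered sample over a control dissolved at 1 mg/ml in 50% acetonitrile. Peptides are agitated for 2 hours at room temperature in 0.1 M sodium diphosphate at pH 6.4 or 7.0, aiming at 10 mg/ml.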

Ki [1] [nM]	Sol6 (Solubility determination) [mg/mL]	Sol7 (Solubility determination) [mg/mL]	SMILES
3.36	6.5	>10.0	CC(C)CC(=O)N[C@@H](C)C(=O)N1CCC[C@H]1C(=O)N[C@@H](CCC(=O)O)C(=O)N[C@@H](CCCCNC(=O)CCCCCNC(=O)CC[C@H](NC(=O)CCCCCCCCCCCCCCCCC(=O)O)C(=O)O)C(=O)N1CCC[C@H]1C(=O)N[C@@H](CCC(=O)O)C(=O)N[C@@H](C)C(=O)N[C@@H](C)C(=O)N[C@@H](C)C(=O)N[C@@H](CCC(=O)O)C(=O)N1CCC[C@H]1C(=O)N[C@@H](CCC(=O)O)C(=O)N[C@@H](CCC(=O)O)C(=O)N[C@@H](CC(C)C)C(=O)N[C@@H](CCC(N)=O)C(=O)N[C@@H](CCCNC(=N)N)C(=O)N[C@@H](Cc1ccc(O)cc1)C(=O)N[C@@H](Cc1ccc(O)cc1)C(=O)N[C@H](C(=O)N[C@@H](C)C(=O)N[C@@H](CC(C)C)C(=O)N[C@@H](CCCNC(=N)N)C(=O)N[C@@H](Cc1c[nH]cn1)C(=O)N[C@@H](Cc1ccc(O)cc1)C(=O)N[C@@H](Cc1ccc(O)cc1)C(=O)N[C@@H](CC(N)=O)C(=O)N[C@@H](Cc1c[nH]c2ccccc12)C(=O)N[C@@H](CC(C)C)C(=O)N[C@H](C(=O)N[C@@H](CCCNC(=N)N)C(=O)N[C@@H](CCC(N)=O)C(=O)N[C@@H](CCCNC(=N)N)C(=O)N[C@@H](Cc1ccc(O)cc1)C(N)=O)[C@@H](C)O)C(C)C [Compound 127, N{alpha-4}-(3-methylbutanoyl)-N{epsilon-7}-(6-[(4S)-4-carboxy-4-(17-carboxyheptadecanamido)butanamido]hexanoyl)-[4A,7K,9E,10A,11A,13E,18Q,22V,23A,28Y,30W,31L]-hPYY(4-36)]
6.17	>10.0	>10.0	CC[C@H](C)[C@H](NC(=O)[C@H](CCC(=O)O)NC(=O)[C@H](CCC(=O)O)NC(=O)[C@@H]1CCCN1C(=O)[C@H](CCCCNC(=O)CCCCCNC(=O)CC[C@H](NC(=O)CCCCCCCCCCCCCCCCC(=O)O)C(=O)O)NC(=O)[C@H](CCC(=O)O)NC(=O)[C@@H]1CCCN1C(=O)[C@H](C)NC(=O)CC(C)C)C(=O)N[C@@H](C)C(=O)N[C@H](C(=O)N1CCC[C@H]1C(=O)N[C@@H](CCC(=O)O)C(=O)N[C@@H](CCC(=O)O)C(=O)N[C@@H](CC(C)C)C(=O)N[C@@H](CCC(N)=O)C(=O)N[C@@H](CCCNC(=N)N)C(=O)N[C@@H](Cc1ccc(O)cc1)C(=O)N[C@@H](Cc1ccc(O)cc1)C(=O)N[C@H](C(=O)N[C@@H](CO)C(=O)N[C@@H](CC(C)C)C(=O)N[C@@H](CCCNC(=N)N)C(=O)N[C@@H](Cc1c[nH]cn1)C(=O)N[C@@H](Cc1ccc(O)cc1)C(=O)N[C@@H](Cc1ccc(O)cc1)C(=O)N[C@@H](CC(N)=O)C(=O)N[C@@H](Cc1c[nH]c2ccccc12)C(=O)N[C@@H](CC(C)C)C(=O)N[C@H](C(=O)N[C@@H](CCCNC(=N)N)C(=O)N[C@@H](CCC(N)=O)C(=O)N[C@@H](CCCNC(=N)N)C(=O)N[C@@H](Cc1ccc(O)cc1)C(N)=O)[C@@H](C)O)C(C)C)[C@@H](C)O [Compound 45, N{alpha-4}-(3-methylbutanoyl)-N{epsilon-7}-(6-[(4S)-4-carboxy-4-(17-carboxyheptadecanamido)butanamido]hexanoyl)-[4A,7K,9E,11I,13T,18Q,22V,28Y,30W,31L]-hPYY(4-36)]
4.65	10.0	10.0	CC(C)CC(=O)N[C@@H](C)C(=O)N1CCC[C@H]1C(=O)N[C@@H](CCC(=O)O)C(=O)N[C@@H](CCCCNC(=O)CCCCCNC(=O)CC[C@H](NC(=O)CCCCCCCCCCCCCCCCC(=O)O)C(=O)O)C(=O)N1CCC[C@H]1C(=O)N[C@@H](CCC(=O)O)C(=O)N[C@@H](CCC(=O)O)C(=O)N[C@@H](C)C(=O)N[C@@H](C)C(=O)N[C@@H](CCC(=O)O)C(=O)N1CCC[C@H]1C(=O)N[C@@H](CCC(=O)O)C(=O)N[C@@H](CCC(=O)O)C(=O)N[C@@H](CC(C)C)C(=O)N[C@@H](CCC(N)=O)C(=O)N[C@@H](CCCNC(=N)N)C(=O)N[C@@H](Cc1ccc(O)cc1)C(=O)N[C@@H](Cc1ccc(O)cc1)C(=O)N[C@H](C(=O)N[C@@H](CO)C(=O)N[C@@H](CC(C)C)C(=O)N[C@@H](CCCNC(=N)N)C(=O)N[C@@H](Cc1c[nH]cn1)C(=O)N[C@@H](Cc1ccc(O)cc1)C(=O)N[C@@H](Cc1ccc(O)cc1)C(=O)N[C@@H](CC(N)=O)C(=O)N[C@@H](Cc1c[nH]c2ccccc12)C(=O)N[C@@H](CC(C)C)C(=O)N[C@H](C(=O)N[C@@H](CCCNC(=N)N)C(=O)N[C@@H](CCC(N)=O)C(=O)N[C@@H](CCCNC(=N)N)C(=O)N[C@@H](Cc1ccc(O)cc1)C(N)=O)[C@@H](C)O)C(C)C [Compound 4, N{alpha-4}-(3-methylbutanoyl)-N{epsilon-7}-(6-[(4S)-4-carboxy-4-(17-carboxyheptadecanamido)butanamido]hexanoyl)[4A,7K,9E,11A,13E,18Q,22V,28Y,30W,31L]-hPYY(4-36)]
6.04	>10.0	10.0	CC(C)CC(=O)N[C@@H](C)C(=O)N1CCC[C@H]1C(=O)N[C@@H](CCC(=O)O)C(=O)N[C@@H](CCCCNC(=O)CCCCCNC(=O)CC[C@H](NC(=O)CCCCCCCCCCCCCCCCC(=O)O)C(=O)O)C(=O)N1CCC[C@H]1C(=O)N[C@@H](CCC(=O)O)C(=O)N[C@@H](CCC(=O)O)C(=O)N[C@@H](CC(=O)O)C(=O)N[C@@H](C)C(=O)N[C@@H](CO)C(=O)N1CCC[C@H]1C(=O)N[C@@H](CCC(=O)O)C(=O)N[C@@H](CCC(=O)O)C(=O)N[C@@H](CC(C)C)C(=O)N[C@@H](CCC(N)=O)C(=O)N[C@@H](CCCNC(=N)N)C(=O)N[C@@H](Cc1ccc(O)cc1)C(=O)N[C@@H](Cc1ccc(O)cc1)C(=O)N[C@H](C(=O)N[C@@H](CO)C(=O)N[C@@H](CC(C)C)C(=O)N[C@@H](CCCNC(=N)N)C(=O)N[C@@H](Cc1c[nH]cn1)C(=O)N[C@@H](Cc1ccc(O)cc1)C(=O)N[C@@H](Cc1ccc(O)cc1)C(=O)N[C@@H](CCC(N)=O)C(=O)N[C@@H](Cc1c[nH]c2ccccc12)C(=O)N[C@@H](CC(C)C)C(=O)N[C@H](C(=O)N[C@@H](CCCNC(=N)N)C(=O)N[C@@H](CCC(N)=O)C(=O)N[C@@H](CCCNC(=N)N)C(=O)N[C@@H](Cc1ccc(O)cc1)C(N)=O)[C@@H](C)O)C(C)C [Compound 60, N{alpha-4}-(3-methylbutanoyl)-N{epsilon-7}-(6-[(4S)-4-carboxy-4-(17-carboxyheptadecanamido)butanamido]hexanoyl)-[4A,7K,9E,18Q,22V,28Y,29Q,30W,31L]-hPYY(4-36)]
1.49	0.0	0.2	CC[C@H](C)[C@H](NC(=O)[C@H](CCC(=O)O)NC(=O)[C@H](CCC(=O)O)NC(=O)[C@@H]1CCCN1C(=O)[C@@H](NC(=O)[C@H](C)NC(=O)[C@H](C)NC(=O)[C@H](CCC(=O)O)NC(=O)[C@H](CCC(=O)O)NC(=O)[C@@H]1CCCN1C(=O)[C@H](CCCCNC(=O)CCCCCNC(=O)CC[C@H](NC(=O)CCCCCCCCCCCCCCCCC(=O)O)C(=O)O)NC(=O)[C@H](C)NC(=O)[C@@H]1CCCN1C(=O)[C@H](C)NC(=O)CC(C)C)[C@@H](C)O)C(=O)N[C@@H](CCC(N)=O)C(=O)N[C@@H](CCCNC(=N)N)C(=O)N[C@@H](Cc1ccc(O)cc1)C(=O)N[C@@H](Cc1ccc(O)cc1)C(=O)N[C@H](C(=O)N[C@@H](C)C(=O)N[C@@H](CC(C)C)C(=O)N[C@@H](CCCNC(=N)N)C(=O)N[C@@H](Cc1c[nH]cn1)C(=O)N[C@@H](Cc1ccc(O)cc1)C(=O)N[C@@H](Cc1ccc(O)cc1)C(=O)N[C@@H](CC(N)=O)C(=O)N[C@@H](Cc1c[nH]c2ccccc12)C(=O)N[C@@H](CC(C)C)C(=O)N[C@H](C(=O)N[C@@H](CCCNC(=N)N)C(=O)N[C@@H](CCC(N)=O)C(=O)N[C@@H](CCCNC(=N)N)C(=O)N[C@@H](Cc1ccc(O)cc1)C(N)=O)[C@@H](C)O)C(C)C [Compound 120, N{alpha-4}-(3-methylbutanoyl)-N{epsilon-7}-(6-[(4S)-4-carboxy-4-(17-carboxyheptadecanamido)butanamido]hexanoyl)-[4A,6A,7K,9E,11A,13T,17I,18Q,22V,23A,28Y,30W,31L]-hPYY(4-36)]
